In paper PMC12441861, “Next-Generation Lipid Prodrugs Orally Deliver Tenofovir via Enhanced Chylomicron Incorporation” (ACS Pharmacology & Translational Science, 2025):
Where two headings read alike, the source gives them in different places.

Key:
[1] = Metabolic stability in human liver microsomes; type: in vitro ADME; conditions: pH 7.4, read-out: Metabolic Stability HLM t1/2
Experimental: Assays employed human liver microsomes (HLMs, 20 mg/mL) from Xenotech. A 10 mM NADPH stock was prepared in deionized H2O, and test compounds were dissolved in 100% MeOH to a final concentration of 10 mM. The stock solutions were diluted to 500 μM in 100 mM potassium phosphate buffer (pH 7.4), keeping the final MeOH concentration below 0.2%. Reaction mixtures were prepared by combining 928 μL phosphate buffer, 55 μL liver microsomes, and the test compound solution to a final concentration of 3 μM. Verapamil was used as a positive control. The reactions were initiated with the addition of 110 μL of 10 mM NADPH. Aliquots were taken in duplicate at 0, 5, 10, 15, and 30 min, quenched with 100 μL of cold MeOH containing 2 μM internal standard (d 5-7-ethoxy coumarin), and centrifuged at 12,000 RCF for 5 min. The supernatants were then transferred to LC-MS vials for analysis. The average of each duplicate was normalized to the 0 min time point, representing 100% remaining (0% metabolism).

Cytotoxicity, MTT assay = conditions: human, TZM-bl cells
Experimental: (§1) To measure cytotoxicity, HeLa-derived TZM-bl cells , were treated with serial dilutions of each drug, and viability was assessed after 48 h. Two methods were used: an ATP luminescence assay, which measures cellular ATP levels as an indicator of metabolic activity (compounds 8a–d), and an MTT assay, which evaluates cell viability via mitochondrial enzymatic activity (compounds 15b, 21a, and 21b).
(§2) The TZM-bl cell line (BEI Resources, ARP-8129) was used to evaluate both cell viability and HIV pseudovirus infectivity reduction. Cytotoxicity in this cell line was measured via two methods. The first method, an ATP luminescence assay, was used for compounds 15a, 15b, 21a, and 21b as such: 6000 TZM-bl cells per well were seeded in a 96-well plate and incubated at 37 °C with 5% CO2 for 24 h. Compounds were prepared as serial dilutions (final concentrations of 1, 0.2, 0.04, 0.008, and 0.0016 μM) in complete DMEM with DEAE-Dextran at 40 μg/mL to mimic HIV infectivity conditions. Solutions were added to the cells and incubated for another 48 h. Viability was assessed using the Promega Cell Titer Glow (CTG) Assay (cat No. G9242) by adding a 50% PBS-CTG solution to each well and measuring luminescence, which correlates with ATP levels, on an Agilent BioTek Synergy HT reader. Cytotoxicity of compounds 8a–d was determined using a colorimetric assay based the conversion of MTT (3-(4,5-dimethylthiazol-2-yl)-2,5-diphenyltetrazolium bromide) to formazan as described previously. TZM-bl cells were plated into 96-well tissue culture plates 1 day prior to performing the MTT assay. A series of 10 3-fold dilutions of each compound was performed from a starting concentration of 10 mM and each dilution was tested for a reduction in cell viability according to the manufacturer’s instructions (CyQuant MTT Cell Viability Assay, ThermoFisher, V13154). Wells containing TZM-bl cells with media only were used as a control. Briefly, serial dilutions of each test compound were added to the plated TZM-bl cells. At 48 h, the media was removed and replaced with 100 mL of fresh culture medium. 10 mL of 12 mM MTT solution was added to each well and incubated at 37 °C for 4 h. 85 mL of supernatant was then removed from each well and replaced with 50 mL of DMSO. Following a 10 min incubation at 37 °C, the absorbance of each well was determined at 540 nm using a Biotek Synergy Neo2 multimode reader and Gen5 v3.02 software.

[2] = test system: Caco-2 cell total membrane; assay: Drug in Caco-2 total membrane fraction versus CM fraction; type: in vitro ADME, human
Text: Having completed this initial prodrug screening, we next sought to evaluate their ability to incorporate into CMs in vitro. For a lysoglycerolipid prodrug (e.g., TXL and BCV) to be packaged into CMs, it must first be transported into intestinal enterocytes, like Caco-2 cells, by intercalating into the outer leaflet of the plasma membrane before flipping (either actively or passively) to the inner leaflet. Subsequent membrane desorption facilitates intraenterocyte diffusion to the ER and Golgi, where CM are produced. Accordingly, we hypothesized that, even though high lipophilicity should drive prodrug association with CMs, these low hydrophilicity compounds first need to get through the plasma membrane, which could create a kinetic barrier to CM incorporation. […] Proceeding with the CM production and isolation assay as described (Scheme ), cells were harvested in parallel, and the total membrane fraction was separated from other cellular components via centrifugation through a specialized filter provided with the Minute Plasma Membrane Protein Isolation and Cell Fractionation Kit from Invent Biotechnologies (cat No. SM-005). […]
Total membrane fractionation was performed using a Minute Plasma Membrane Protein Isolation and Cell Fractionation Kit from Invent Biotechnologies (cat No. SM-005). […] The clear supernatant was collected and analyzed using LC-MS/MS.

[3] = Cytotoxicity, ATP luminescence (Cell Titer Glow) assay; conditions: human, TZM-bl cells
Experimental: as §1, §2

[4] = Mouse oral PK and tissue distribution, fed state; type: in vivo; conditions: single oral dose 10 mg/kg, fed mice
Text: Given the increased packaging of the CF3-modified lipids into CMs compared to their ω-unmodified congeners, we selected these compounds for PK studies in mice. We hypothesized that, following oral administration, our modified prodrugs would favor CM-mediated transport into the lymphatics over absorption into mesenteric veins feeding into the portal system. By circumventing direct transport to the liver, these prodrugs are expected to achieve elevated levels in the lung relative to the liver, as lymph empties into the jugular venous angle and mixes with blood en route to the pulmonary arteries (Figure ). For all mouse PK experiments, prodrugs were formulated in a 9:1 mixture of olive oil and ethanol, then administered to male C57BL/6 mice via oral gavage at a dose of 10 mg/kg. Organs (liver, lung, and plasma) were harvested at 1, 2, 4, 8, and 18 h postdose, per the protocol described by our groups previously. Concentrations of prodrug were quantified using LC-MS/MS after tissue homogenization, extraction, and sample preparation.
The compounds TXL, 15a, 15b, 21a, 21b, and a vehicle control were prepared at a concentration of 1 mg/mL in a 90:10 solution of olive oil (Sigma-Aldrich, cat. No. O1514) and 190-proof ethanol. The dosing for each mouse was calculated based on individual body weights to achieve a final dose of 10 mg/kg. For example, a 20 g mouse would receive 200 μL of the 1 mg/mL drug formulation, while a 25 g mouse would receive 250 μL.
In accordance with the American Chemical Society Guidelines to Publication of Chemical Research, we affirm the use of standard ethical practices when housing and handling research animals, as ensured by the Emory University’s Institutional Animal Care and Use Committee (IACUC) and the Division of Animal Resources (DAR) through a rigorous protocol review, amendment, and approval process. A total of 220 C57BL6/J male mice (aged 11–12 weeks, weight, 22–30 g) were used for these studies. Each mouse was weighed, recorded, and ear-clipped for identification. The dosing for each mouse was calculated based on individual body weights to achieve a final dose of 10 mg/kg. Animals were anesthetized using isoflurane gas before receiving a single dose of drug prepared as described above using a 22-gauge gavage needle attached to a calibrated syringe.
Time points for tissue collection were 1, 2, 4, 8, and 18 h for unfasted mice, and 1, 2, 4, 8, and 24 h for fasted mice. At each time point, the mice (n = 4 per compound per time point) were anesthetized using isoflurane and subjected to cardiac puncture for blood collection into EDTA-coated tubes. The collected blood samples were immediately placed on ice before the mice were humanely euthanized via cervical dislocation. Brain, liver, lungs, and kidneys were harvested, rinsed in PBS, and placed in prelabeled tubes. Tissues were flash-frozen in liquid nitrogen then transferred to dry ice for storage.
Blood samples were collected into EDTA-coated tubes and centrifuged at 400 RCF for 10 min at 4 °C to separate plasma from the cellular components. The plasma layer was carefully pipetted off and stored in separate prelabeled and preweighed tubes. All tissues were stored at −80 °C until time for processing.
Tissues were weighed (∼50 mg) into homogenization tubes and ACN containing a 10 μM ITSD was added to achieve a final solvent-to-tissue ratio of 4:1. Homogenization beads were added, and the tissues were processed (Biotage Lysera, part no. 19–060) using two 20 s pulses with a 10 s interval period. Homogenate was centrifuged at maximum speed for 1 h, supernatant collected and analyzed via LC-MS using the method described previously. For plasma samples, a 50 μL aliquot was added 200 μL of ACN containing ITSD. The mixture was vortexed thoroughly and then centrifuged to precipitate proteins, with the supernatant collected and analyzed via LC-MS. […]

[5] = Metabolic stability in mouse liver microsomes; type: in vitro ADME; conditions: pH 7.4, read-out: Metabolic Stability MLM t1/2
[6] = parameters: method as in Hostetler 2007; conditions: single oral dose, prodrug in lung and liver over 72 h; ref Hostetler 2007; cited from earlier work
[7] = parent Cidofovir; ref Hostetler 2007; cited from earlier work
[8] = ref Hostetler 2007; cited from earlier work

With CCCCCCCCCCCCCCCCCCOC[C@H](COP(=O)(O)CO[C@H](C)Cn1cnc2c(N)ncnc21)OCc1ccccc1 [8d, Ammonium[(1R)-2-(6-aminopurin-9-yl)-1-methyl-ethoxy]methyl-[(2R)-2-benzyloxy-3-octadecoxy-propoxy]phosphinate] the half-life at 3 µM [1] was over 2 h, the CC50 at 48 h (Cytotoxicity, MTT assay) was over 10 µM and the “membrane concentration compared with TXL” value ([2]; 8 h, n = 3) was “significantly greater concentrations in the membrane than TXL”. For the same compound, the “drug in membrane fraction” value ([2]; 20 h) was “undetectable”.
In the case of C[C@H](Cn1cnc2c(N)ncnc21)OCP(=O)(O)OCCCOCCCCCCCCCCCCCCCCCC(F)(F)F [15b, Ammonium[(1R)-2-(6-aminopurin-9-yl)-1-methyl-ethoxy]methyl-[3-(18,18,18-trifluorooctadecoxy)propoxy]phosphinate], the half-life at 3 µM [1] is reported as over 2 h, the CC50 at 48 h [3] is reported as over 1 µM and the Tmax ([4]; male, C57BL/6, mouse, liver, read-out: Liver Tmax) is reported as 4 h. It also gave a Tmax ([4]; male, C57BL/6, mouse, lung, read-out: Lung Tmax) of 8 h, a Cmax ([4]; male, C57BL/6, mouse, plasma) of 102 ng/mL and an AUC(0-t) ([4]; male, C57BL/6, mouse, plasma, read-out: Plasma AUC0-18h) of 1010 ng·h/mL. For the same compound, the Tmax ([4]; male, C57BL/6, mouse, plasma, read-out: Plasma Tmax) was 4 h, the “Liver AUC0-18h” value [4] was 133,000 h*ng/g and the “Liver Cmax” value [4] was 13,400 ng/g. For the same compound, the “Lung AUC0-18h” value [4] was 7,120 h*ng/g, the “Lung Cmax” value [4] was 585 ng/g and the half-life at 3 µM [5] was 1.52 h.
In the case of CCCCCCCCCCCCCCCCOCCCOP(=O)(O)CO[C@H](CO)Cn1ccc(N)nc1=O [BCV, brincidofovir], the “lung/liver AUC0–72h” value [6] is listed as 0.04.
In the case of CCCCCCCCCCCCCCCCCCOCC(COP(=O)(O)COC(CO)Cn1ccc(N)nc1=O)OCc1ccccc1 (centres unmarked) [ODBG-CDV, 1-O-octadecyl-2-O-benzyl-sn-glycero-3-cidofovir], the “lung/liver AUC0–72h” value [6] is given as 2.05, the “Δ Oral Availability (% versus Parent)” value [7] is given as 32% and the “increase in lung delivery compared to liver” value [8] is given as 13-fold increase in lung delivery compared to liver.
